Results published in article PMC9019904, “AD Informer Set: Chemical tools to facilitate Alzheimer's disease drug discovery” (Alzheimer's & Dementia : Translational Research & Clinical …, 2022).

Assays:
[1] = system: BV2 (mouse microglia) cell line; test: pHrodo-myelin phagocytosis/cell viability high content imaging assay: viability (cell count, nuclear area, nuclear intensity); conditions: for 1. Cell count (% control) / 2. Nuclear Area (% Control) / 3. Nuclear DNA Intensity (% control): 48 hours treatment
Procedure, shortened: (§1)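 Duplicate single-point screen at 10 μM over 48 h, combined with pHrodo-myelin phagocytosis during the last 20 h. Cytotoxicity is taken from imaged cell counts and nuclear intensity changes, normalized to untreated wells as % control.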

[2] = system: HMC3 (human microglia) cell line; test: as above; conditions: for 1. Cell count (% control) / 2. Nuclear Area (% Control) / 3. Nuclear DNA Intensity (% control): 48 hours treatment
Procedure, shortened: as §1

[3] = system: BV2 (mouse microglia) cell line; test: pHrodo-myelin phagocytosis/cell viability high content imaging assay: phagocytosis signal; assay type: cell-based
Procedure, shortened: (§2)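 Mouse BV2 and human HMC3 microglia given pHrodo-myelin; phagocytosis and cell viability imaged together by high content imaging about 22 hours after myelin addition. Three measurements extracted, including intensity increase and decrease marking early and later apoptosis.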

[4] = system: HMC3 (human microglia) cell line; test: as above; assay type: cell-based
Procedure, shortened: as §2

[5] = BV2 cells, 10 uM compound, 48 hours treatment, pHrodo-myelin final 20 hours
[6] = HMC3 cells, 10 uM compound, 48 hours treatment, pHrodo-myelin final 20 hours

Compound | 1. Cell count (% control) ([1]; BV2 cells, 10 uM compound) | 2. Nuclear Area (% Control) ([1]; BV2 cells, 10 uM compound) | 3. Nuclear DNA Intensity (% control) ([1]; BV2 cells, 10 uM compound) | 1. Cell count (% control) ([2]; HMC3 cells, 10 uM compound) | 2. Nuclear Area (% Control) ([2]; HMC3 cells, 10 uM compound) | 3. Nuclear DNA Intensity (% control) ([2]; HMC3 cells, 10 uM compound) | 4. Phagocytosis (% control) [3, 5] | 4. Phagocytosis (% control) [4, 6] | 1. Cell count (% control) ([1]; BV2, compound 10 uM) | 2. Nuclear Area (% Control) ([1]; BV2, compound 10 uM) | 3. Nuclear DNA Intensity (% control) ([1]; BV2, compound 10 uM) | 1. Cell count (% control) ([2]; HMC3, compound 10 uM) | 2. Nuclear Area (% Control) ([2]; HMC3, compound 10 uM) | 3. Nuclear DNA Intensity (% control) ([2]; HMC3, compound 10 uM) | 4. Phagocytosis (% control) ([3]; BV2, compound 10 uM, pHrodo-myelin) | 4. Phagocytosis (% control) ([4]; HMC3, compound 10 uM, pHrodo-myelin) | cytotoxicity in mouse microglial cells (cell count < 70% control) ([1]; BV2, 10 μM, 48 hours, cell count) | cytotoxicity in human microglial cells (cell count < 70% control) ([2]; HMC3, 10 μM, 48 hours, cell count)
C[C@@H]1O[C@@H](O[C@H]2[C@H](Oc3cc(O)c4c(c3)O[C@H](c3ccc(O)cc3)CC4=O)O[C@H](CO)[C@@H](O)[C@@H]2O)[C@H](O)[C@H](O)[C@H]1O [UNC10242153A] | 113.5 % control | 104.9 % Control | 98.8 % control | 139.8 % control | 102.9 % Control | 93.8 % control | 167.6 % control | 65.7 % control |  |  |  |  |  |  |  |  |  | 
CC(Nc1nc(N2CCCC2)nc2ccccc12)c1ccccc1 (centres unmarked) [UNC10302900A] | 9.8 % control | 106.6 % Control | 119.7 % control | 56.4 % control | 90.6 % Control | 151.6 % control | 110.9 % control | 34.5 % control |  |  |  |  |  |  |  |  |  | 
Cc1cc(Nc2ncc(Cl)c(Nc3ccccc3S(=O)(=O)C(C)C)n2)c(OC(C)C)cc1C1CCNCC1 [UNC10244729A] | 19.2 % control | 92.5 % Control | 49.1 % control | 28.7 % control | 60.3 % Control | 155.5 % control | 0.00122 % control | 0.00248 % control |  |  |  |  |  |  |  |  |  | 
Oc1cc(CNC(=S)/C=C/c2cc(O)c(O)c(Br)c2)cc(O)c1O [UNC10302699A] |  |  |  |  |  |  |  |  | 17.7 % control | 116.2 % Control | 76.1 % control | 53.7 % control | 113.5 % Control | 119.4 % control | 235.2 % control | 92.5 % control |  | 
O=C(Nc1c[nH]nc1-c1nc2cc(CN3CCOCC3)ccc2[nH]1)NC1CC1 [UNC10126643A] | 6.1 % control | 158.4 % Control | 29.9 % control | 85.8 % control | 114.0 % Control | 123.7 % control | 1.0 % control | 64.5 % control |  |  |  |  |  |  |  |  |  | 
C=C(c1ccc(C(=O)O)cc1)c1cc2c(cc1C)C(C)(C)CCC2(C)C [UNC10302949A] | 91.0 % control | 109.3 % Control | 95.6 % control | 131.9 % control | 99.3 % Control | 94.9 % control | 117.0 % control | 79.3 % control |  |  |  |  |  |  |  |  |  | 
CN(C)CC[C@H](CSc1ccccc1)Nc1ccc(S(=O)(=O)NC(=O)c2ccc(N3CCN(Cc4ccccc4-c4ccc(Cl)cc4)CC3)cc2)cc1[N+](=O)[O-] [UNC10302898A] | 128.7 % control | 97.8 % Control | 106.0 % control | 148.0 % control | 98.3 % Control | 97.1 % control | 104.5 % control | 82.2 % control |  |  |  |  |  |  |  |  |  | 
C[C@]12C=CC(=O)C=C1CC[C@@H]1[C@@H]2[C@@H](O)C[C@@]2(C)[C@H]1CC[C@]2(O)C(=O)CO [UNC10240227A] | 107.8 % control | 102.9 % Control | 105.7 % control | 161.9 % control | 102.8 % Control | 82.5 % control | 126.6 % control | 79.4 % control |  |  |  |  |  |  |  |  |  | 
Cc1ccc(NC(=O)c2ccc(CN3CCN(C)CC3)cc2)cc1Nc1nc(-c2cccnc2)cs1 [UNC10126573A, masitinib, reference compound] | 7.7 % control | 107.9 % Control | 43.3 % control | 71.0 % control | 92.7 % Control | 124.1 % control | 0.0635 % control | 3.5 % control |  |  |  |  |  |  |  |  | displayed cytotoxicity only in mouse microglia | cytotoxicity only in mouse microglia
